What was measured:
Wolbachia [1] = assay: Microscopy-based high-throughput screen in Wolbachia-infected Drosophila tissue culture cells; assay type: cell-based; settings: 100 uM in media, 3 days incubation
Procedure: In collaboration with the microscope company Molecular Devices, we optimized journaling software that analyzes the level of cytoplasmic DAPI (Wolbachia) fluorescence per cell in all wells of the plate. […] In this pilot, compounds were added to Wolbachia-infected cells at a final concentration of 100 uM in media and allowed to incubate for 3 days. Cells were then fixed, stained, imaged, and analyzed by automated machinery.

Brugia malayi = Brugia malayi drug feeding assay (worm mortality); assay type: in vivo
Source text: Small molecules of interest found by the primary tissue culture screen must be tested in animal models to determine their relevance to Wolbachia in vivo. Because Wolbachia are vital endosymbionts of Brugia malayi worms that cause Elephantiasis, the next important step was to validate whether compounds found in the high-throughput screen could affect the viability of those worms. To assay this, we performed a pilot feeding assay by distributing Brugia malayi into 12-well plates containing tissue culture media and different compounds added to a final concentration of 100 uM. […] In this feeding assay, we observed that worms fed with pararosanaline pamoate ceased movement within 2 hours, whereas all other treatments took substantially longer to affect the worms (FIG. 3). Our preliminary dose-response tests of pararosanaline pamoate indicate that the lethal feeding dose lies between 25 uM and 10 uM.

Wolbachia [2] = assay: Confocal imaging of Wolbachia in treated Brugia malayi worms; assay type: in vivo
Wolbachia [3] = assay: Wolbachia titer in ovarian tissues of fed D. melanogaster (confocal microscopy, image-based quantification); assay type: in vivo, Wolbachia (in Drosophila melanogaster)
Procedure: As the next validation step, it was important to determine whether the compounds found in our screen can cure a host of Wolbachia while also permitting host viability. To investigate this, we first performed a feeding assay using Wolbachia-infected Drosophila melanogaster flies. Flies were provided with fly food containing pararosanaline pamoate at concentrations of 100 uM or less, and viability was scored over time. […] To then determine whether the treatment affected the quantity of Wolbachia carried by the D. melanogaster host, we fed pararosaniline pamoate to Wolbachia-infected fruit flies for 3 days and analyzed Wolbachia titer in ovarian tissues. This was performed through use of confocal microscopy and image-based bacterial quantification software.

| Compound | cytoplasmic DAPI (Wolbachia) fluorescence per cell / hit in tissue culture screen (Wolbachia [1]) | cytoplasmic DAPI (Wolbachia) fluorescence per cell / hit in tissue culture screen (Wolbachia [1]; listed as pararosanaline pamoate) | time until worms ceased movement (Brugia malayi; 100 uM in tissue culture media, 12-well plates) [h] | worm viability after treatment (FIG. 3) (Brugia malayi; drug feeding assay) | number of Wolbachia carried by host, worms killed by drug vs untreated worms (Wolbachia [2]) | Wolbachia titer in Drosophila oocytes (FIG. 5) (Wolbachia [3]; average quantity within a single focal plane of oocytes) | Wolbachia titer relative to control levels (Wolbachia [3]; fed for 3 days, ovarian tissues (oocytes), preliminary) [%] |
| --- | --- | --- | --- | --- | --- | --- | --- |
| CC(C)(C)CC(C)(C)c1ccc(O)c(Cc2ccc(Cl)cc2Cl)c1 [Clofoctol] | identified by the screening methods of the invention | – | – | – | – | – | – |
| COC(=O)[C@H]1[C@H]2C[C@H]3c4[nH]c5cc(OC)ccc5c4CCN3C[C@H]2C[C@@H](OC(=O)c2cc(OC)c(OC)c(OC)c2)[C@@H]1OC [Isoreserpine] | identified by the screening methods of the invention | – | – | – | – | – | – |
| N=C1C=CC(=C(c2ccc(N)cc2)c2ccc(N)cc2)C=C1 [Pararosaniline Pamoate] | identified by the screening methods of the invention | found in the pilot tissue culture screen | ≤ 2 | Inviable | no visible difference | reduced | 60 |
| Cc1ncc(CO)c(CO)c1O.Cl [pyroxidine HCl] | found in the pilot tissue culture screen | – | – | – | – | – | – |
